Source: the supplement of paper PMC4649846
Several values for one entry are separate records, joined by “and”; a condition that tells them apart may be missing. Identical values can stand only once.

What was measured:
MDA-MB-231 [1] = experiment: drug sensitivity score (DSS); higher = more sensitive; extreme values may be limits of the assay; settings: incubation time: 72 h
Experimental: (§1)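 MDA-MB-231 breast cancer cells were transfected with siBRCA1 or non-targeting siControl, then seeded 24 h later at 4000 cells/well in 384-well plates holding 198 drugs at 5 concentrations. Viability was read by CellTiter-Blue after 72 h at 37 °C. Dose-response curves were fitted in Dotmatics to give IC50 and a drug sensitivity score (DSS: area under the curve relative to the area between the 10% threshold and 100% inhibition, normalised by the log of the top response). The dose range is not stated. IC50 values of 8333.3 or 4166.7 nM mark no response (top dose), and 0.8333 nM is the lower limit.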

MDA-MB-231 [2] = settings: incubation time: 72 h
Experimental: as §1

[3] = siRNA: siControl (non-targeting)

Row | Compound | IC50 of cell viability (MDA-MB-231 [2]; siRNA: siBRCA1) | IC50 of cell viability (MDA-MB-231 [2]; [3]) | drug sensitivity score (MDA-MB-231 [1]; siRNA: siBRCA1) | drug sensitivity score (MDA-MB-231 [1]; [3])
1 | C/C(=C\c1csc(C)n1)[C@@H]1C[C@@H]2O[C@]2(C)CCC[C@H](C)[C@H](O)[C@@H](C)C(=O)C(C)(C)[C@@H](O)CC(=O)O1 [Epothilone B (Patupilone)] | 0.0294 µM | 0.0291 µM | 23.4 | 23.6
2 | CO[C@H]1C[C@@H]2CC[C@@H](C)[C@@](O)(O2)C(=O)C(=O)N2CCCC[C@H]2C(=O)O[C@H]([C@H](C)C[C@@H]2CC[C@@H](OCCO)[C@H](OC)C2)CC(=O)[C@H](C)/C=C(\C)[C@@H](O)[C@@H](OC)C(=O)[C@H](C)C[C@H](C)/C=C/C=C/C=C/1C [Everolimus] | 0.00112 µM and < 0.000833 µM | < 0.000833 µM | 19.8 and 16.9 | 21.1 and 21.8
3 | C=C1C[C@@H]2[C@H](CC[C@]3(C)C(=O)CC[C@@H]23)[C@@]2(C)C=CC(=O)C=C12 [Exemestane] | > 4.17 µM | > 4.17 µM | 0 | 0
4 | CC(C)(C)NC(=O)[C@H]1CC[C@H]2[C@@H]3CC[C@H]4NC(=O)C=C[C@]4(C)[C@H]3CC[C@]12C [Finasteride] | > 4.17 µM | > 4.17 µM | 0 | 0
5 | O=c1[nH]c(=O)n([C@H]2C[C@H](O)[C@@H](CO)O2)cc1F [Floxuridine] | 0.748 µM | 0.291 µM | 8.85 | 11.5
6 | Nc1nc(F)nc2c1ncn2[C@@H]1O[C@H](CO)[C@@H](O)[C@@H]1O [Fludarabine] | > 4.17 µM | 0.333 µM | 0 | 3.39
7 | O=c1[nH]cc(F)c(=O)[nH]1 [Fluorouracil] | > 4.17 µM | > 4.17 µM | 1.13 | 0.956
8 | C[C@]12CC[C@@H]3c4ccc(O)cc4C[C@@H](CCCCCCCCC[S+]([O-])CCCC(F)(F)C(F)(F)F)[C@H]3[C@@H]1CC[C@@H]2O (stereo partly specified) [Fulvestrant] | > 4.17 µM | > 4.17 µM | 0 | 0
9 | Nc1ccn([C@@H]2O[C@H](CO)[C@@H](O)C2(F)F)c(=O)n1 [Gemcitabine] | 2.49 µM | 0.0787 µM | 7.87 | 12.8
10 | NC(=O)NO [Hydroxyurea] | > 4.17 µM | > 4.17 µM | 0 | 0
11 | O=P1(NCCCl)OCCCN1CCCl (stereo unspecified) [Ifosfamide] | > 4.17 µM | > 4.17 µM | 0 | 0
12 | O=C(Nc1ccncc1)C(=O)c1cn(Cc2ccc(Cl)cc2)c2ccccc12 [Indibulin] | 0.753 µM | 0.632 µM | 7.58 | 7.93
13 | C[C@]12O[C@H](C[C@]1(O)CO)n1c3ccccc3c3c4c(c5c6ccccc6n2c5c31)CNC4=O [Lestaurtinib] | 1.4 µM | 0.794 µM | 8.59 | 11.3
14 | O=NN(CCCl)C(=O)NC1CCCCC1 [Lomustine] | > 4.17 µM | > 4.17 µM | 0 | 0
15 | N[C@@H](Cc1ccc(N(CCCl)CCCl)cc1)C(=O)O [Melphalan] | > 4.17 µM | > 4.17 µM | 0 | 0
16 | S=c1[nH]cnc2nc[nH]c12 [Mercaptopurine] | > 4.17 µM | 0.991 µM | 0 | 4.58

Second part, led by results:

Row | IC50 of cell viability (MDA-MB-231 [2]; siRNA: siBRCA1) | IC50 of cell viability (MDA-MB-231 [2]; [3]) | Compound | drug sensitivity score (MDA-MB-231 [1]; siRNA: siBRCA1) | drug sensitivity score (MDA-MB-231 [1]; [3])
17 | > 4.17 µM | > 4.17 µM | C#Cc1cccc(Nc2ncnc3cc(OCCOC)c(OCCOC)cc23)c1 [Erlotinib] | 0 | 0
18 | 0.0919 µM | > 4.17 µM | COc1cc([C@@H]2c3cc4c(cc3[C@@H](O[C@@H]3O[C@@H]5CO[C@@H](C)O[C@H]5[C@H](O)[C@H]3O)[C@H]3COC(=O)[C@H]23)OCO4)cc(OC)c1O [Etoposide] | 10 | 2.9
19 | > 4.17 µM | > 4.17 µM | O=S(=O)(c1cccc2cnccc12)N1CCCNCC1 [Fasudil] | 0 | 0
20 | 3 µM | 1.71 µM | CCCCCCCCc1ccc(CCC(N)(CO)CO)cc1 [Fingolimod] | 5.09 | 7.79
21 | > 4.17 µM | > 4.17 µM | CC(C)C(=O)Nc1ccc([N+](=O)[O-])c(C(F)(F)F)c1 [Flutamide] | 0 | 0
22 | 0.503 µM | 0.585 µM | COc1cc2c(Oc3ccc(NC(=O)C4(C(=O)Nc5ccc(F)cc5)CC4)cc3F)ccnc2cc1OCCCN1CCOCC1 [Foretinib] | 13.6 | 12.8
23 | 2.53 µM | 0.57 µM | CS(=O)(=O)N1CCN(Cc2cc3nc(-c4cccc5[nH]ncc45)nc(N4CCOCC4)c3s2)CC1 [GDC-0941 (Pictilisib)] | 7.18 | 12
24 | > 4.17 µM | > 4.17 µM | COc1cc2ncnc(Nc3ccc(F)c(Cl)c3)c2cc1OCCCN1CCOCC1 [Gefitinib] | 0 | 0
25 | > 4.17 µM | > 4.17 µM | CC(C)C[C@H](NC(=O)[C@@H](COC(C)(C)C)NC(=O)[C@H](Cc1ccc(O)cc1)NC(=O)[C@H](CO)NC(=O)[C@H](Cc1c[nH]c2ccccc12)NC(=O)[C@H](Cc1cnc[nH]1)NC(=O)[C@@H]1CCC(=O)N1)C(=O)N[C@@H](CCCNC(=N)N)C(=O)N1CCC[C@H]1C(=O)NNC(N)=O [Goserelin] | 0 | 0
26 | 0.0914 µM | 0.115 µM | CC(=O)[C@]1(O)Cc2c(O)c3c(c(O)c2[C@@H](O[C@H]2C[C@H](N)[C@H](O)[C@H](C)O2)C1)C(=O)c1ccccc1C3=O [Idarubicin] | 22 | 21
27 | > 4.17 µM | > 4.17 µM | Cc1ccc(NC(=O)c2ccc(CN3CCN(C)CC3)cc2)cc1Nc1nccc(-c2cccnc2)n1 [Imatinib] | 0 | 0
28 | > 4.17 µM | > 4.17 µM | CC(C)Cn1cnc2c(N)nc3ccccc3c21 [Imiquimod] | 0 | 0
29 | > 4.17 µM | > 4.17 µM | NC(=O)c1ccc(I)c([N+](=O)[O-])c1 [Iniparib] | 0 | 0
30 | 0.76 µM | 0.576 µM | CCc1c2c(nc3ccc(OC(=O)N4CCC(N5CCCCC5)CC4)cc13)-c1cc3c(c(=O)n1C2)COC(=O)[C@]3(O)CC [Irinotecan] | 6.18 | 3.11
31 | 0.249 µM | 0.251 µM | C/C(=C\c1csc(C)n1)[C@@H]1C[C@@H]2O[C@]2(C)CCC[C@H](C)[C@H](O)[C@@H](C)C(=O)C(C)(C)[C@@H](O)CC(=O)N1 [Ixabepilone] | 14.8 | 16.2
32 | 1.15 µM | > 4.17 µM | CS(=O)(=O)CCNCc1ccc(-c2ccc3ncnc(Nc4ccc(OCc5cccc(F)c5)c(Cl)c4)c3c2)o1 [Lapatinib] | 4.84 | 0
33 | > 4.17 µM | > 4.17 µM | Nc1cccc2c1CN(C1CCC(=O)NC1=O)C2=O (stereo unspecified) [Lenalidomide] | 0 | 0
34 | > 4.17 µM | > 4.17 µM | N#Cc1ccc(C(c2ccc(C#N)cc2)n2cncn2)cc1 [Letrozole] | 0 | 0
35 | 3.17 µM | > 4.17 µM | c1ccc([C@H]2CN3CCSC3=N2)cc1 [Levamisole] | 0.142 | 0
36 | 0.348 µM | 0.23 µM | C=CCn1c(=O)c2cnc(Nc3ccc(N4CCN(C)CC4)cc3)nc2n1-c1cccc(C(C)(C)O)n1 [MK1775] | 13.2 | 14.3
37 | > 4.17 µM | > 4.17 µM | NC1(c2ccc(-c3nc4ccn5c(=O)[nH]nc5c4cc3-c3ccccc3)cc2)CCC1 [MK-2206] | 0 | 0
38 | 0.917 µM | 0.358 µM | COc1cc(Nc2ncc3c(n2)-c2ccc(Cl)cc2C(c2c(F)cccc2OC)=NC3)ccc1C(=O)O [MLN8237 (Alisertib)] | 4.61 | 8.75
39 | > 4.17 µM | 1.41 µM | Cc1ccc(NC(=O)c2ccc(CN3CCN(C)CC3)cc2)cc1Nc1nc(-c2cccnc2)cs1 [Masitinib] | 0.717 | 4.31
